Measured values taken from patent US6706740B2, “Fungicidal heterocyclic aromatic amides and their compositions, methods of use and preparation” (Dow AgroSciences LLC, priority 1999, dated 2004).
Like-named read-outs stand apart in the source and are kept apart here.

Key:
[1] = test system: Septoria tritici—SEPTTR; test: Leaf Blotch of Wheat, in vivo whole plant, 24 Hour Protectant; conditions: for pest or weed control at 100 ppm: Zymoseptoria tritici, 24 h, control of fungal infection vs untreated plants, read-out: SEPTTR in vivo 1 Day Protectant
[2] = test system: Ustilago maydis (USTIMA); test: microbe, parasite or virus in culture; type: cell-based; conditions: Mycosarcoma maydis, read-out: USTIMA in vitro Growth Inhibition
[3] = test system: Leptosphaeria nodorum—LEPTNO; test: Glume Blotch of Wheat, in vivo whole plant, 24 Hour Protectant; conditions: for pest or weed control at 100 ppm: Leptosphaeria, read-out: LEPTNO in vivo 1 Day Protectant
[4] = test system: Stagonospora nodorum (Leptosphaeria nodorum—LEPTNO); test: In vitro fungal growth inhibition, Stagonospora nodorum (LEPTNO); type: cell-based; conditions: Leptosphaeria, read-out: LEPTNO in vitro Growth Inhibition
[5] = test system: Puccinia recondita—PUCCRT; test: Brown Rust of Wheat, in vivo whole plant, 24 Hour Protectant; conditions: for pest or weed control at 100 ppm: Puccinia, read-out: PUCCRT in vivo 1 Day Protectant
[6] = test system: Magnaporthe grisea (Pyricularia oryzae—PYRIOR); test: microbe, parasite or virus in culture; type: cell-based; conditions: Pyricularia oryzae, read-out: PYRIOR in vitro Growth Inhibition
[7] = test system: Phytophthora infestans—PHYTIN; test: whole plant or invertebrate; type: in vivo; conditions: Phytophthora, in Solanum lycopersicum, 24 h, read-out: PHYTIN in vivo 1 Day Protectant
[8] = test system: Mycosphaerella graminicola (Septoria tritici—SEPTTR); test: In vitro fungal growth inhibition, Mycosphaerella graminicola (SEPTTR); type: cell-based; conditions: Zymoseptoria tritici, read-out: SEPTTR in vitro Growth Inhibition
[9] = test system: Erysiphe graminis—ERYSGT; test: Powdery Mildew of Wheat, in vivo whole plant, 24 Hour Protectant; conditions: for pest or weed control at 100 ppm: Erysiphe, read-out: ERYSGT in vivo 1 Day Protectant
[10] = test system: Rhizoctonia solani (RHIZSO); test: microbe, parasite or virus in culture; type: cell-based; conditions: Rhizoctonia solani, read-out: RHIZSO in vitro Growth Inhibition
[11] = test system: Phytophthora infestans (PHYTIN); test: microbe, parasite or virus in culture; type: cell-based; conditions: Phytophthora infestans, read-out: PHYTIN in vitro Growth Inhibition
[12] = wheat plants sprayed at 100 ppm, inoculated after 24 hours
[13] = wheat plants sprayed at 100 ppm, inoculated after 24 hours, control of fungal infection vs untreated plants
[14] = 100 ppm spray, 24 hour protectant, wheat
[15] = 100 ppm spray, 24 hour protectant, wheat, control of fungal infection vs untreated plants
[16] = 100 ppm spray, wheat, 24 hour protectant, % control of fungal infection vs untreated plants

Cc1ccnc(C(=O)N[C@H]2COC(=O)[C@H](Cc3ccccc3)[C@@H](OC(=O)C(C)C)[C@H](C)OC2=O)c1OC(=O)C(C)C [Compound 572]
pest or weed control at 100 ppm [1, 12]: 25 to 74%
inhibition at 25 ppm [2]: < 80%
pest or weed control at 100 ppm [3, 13]: 25 to 74%
inhibition at 25 ppm ([4]; 25 ppm in the growth medium): < 80%
PUCCRT in vivo 1 Day Protectant [5, 13]: + +
inhibition at 25 ppm [6]: < 80%
melting point: 163 to 166 °C
pest or weed control at 100 ppm [7]: < 25%
inhibition at 25 ppm ([8]; 25 ppm in the growth medium): < 80%
pest or weed control at 100 ppm [9, 13]: < 25%
inhibition at 25 ppm [10]: < 80%
inhibition at 25 ppm [11]: < 80%

O=C(Nc1ccc(Oc2ccc(C(F)(F)F)cc2)cc1)c1ncccc1O [Compound 217]
pest or weed control at 100 ppm [1, 14]: < 25%
inhibition at 25 ppm [2]: < 80%
pest or weed control at 100 ppm [3, 15]: < 25%
inhibition at 25 ppm ([4]; 25 ppm in growth medium): < 80%
pest or weed control at 100 ppm [5, 15]: < 25%
inhibition at 25 ppm [6]: < 80%
melting point: 131 to 133 °C
pest or weed control at 100 ppm [7]: < 25%
inhibition at 25 ppm ([8]; 25 ppm in growth medium): < 80%
pest or weed control at 100 ppm [9, 15]: 25 to 74%
inhibition at 25 ppm [10]: < 80%
inhibition at 25 ppm [11]: < 80%

O=C(NC1CCC(O)CC1)c1ncccc1O (centres unmarked) [Compound 208]
pest or weed control at 100 ppm [1, 14]: < 25%
inhibition at 25 ppm [2]: < 80%
pest or weed control at 100 ppm [3, 15]: < 25%
inhibition at 25 ppm ([4]; 25 ppm in growth medium): < 80%
pest or weed control at 100 ppm [5, 15]: 25 to 74%
inhibition at 25 ppm [6]: < 80%
melting point: 112 to 115 °C
pest or weed control at 100 ppm [7]: 25 to 74%
inhibition at 25 ppm ([8]; 25 ppm in growth medium): < 80%
pest or weed control at 100 ppm [9, 15]: < 25%
inhibition at 25 ppm [10]: < 80%
inhibition at 25 ppm [11]: < 80%

COc1ccnc(C(=O)N[C@@H]2CCCC[C@H]2SC)c1O [Compound 273]
pest or weed control at 100 ppm [1, 14]: 25 to 74%
inhibition at 25 ppm [2]: < 80%
pest or weed control at 100 ppm [3, 15]: 25 to 74%
inhibition at 25 ppm ([4]; 25 ppm in growth medium): < 80%
pest or weed control at 100 ppm [5, 15]: < 25%
inhibition at 25 ppm [6]: < 80%
melting point: 113 to 115 °C
pest or weed control at 100 ppm [7]: < 25%
inhibition at 25 ppm ([8]; 25 ppm in growth medium): < 80%
pest or weed control at 100 ppm [9, 15]: < 25%
inhibition at 25 ppm [10]: < 80%
inhibition at 25 ppm [11]: < 80%

CC1(C)CC(NC(=O)c2nscc2O)CC(C)(C)C1 [Compound 549]
pest or weed control at 100 ppm [1, 12]: 25 to 74%
inhibition at 25 ppm [2]: < 80%
pest or weed control at 100 ppm [3, 13]: 25 to 74%
inhibition at 25 ppm ([4]; 25 ppm in the growth medium): < 80%
pest or weed control at 100 ppm [5, 13]: < 25%
inhibition at 25 ppm [6]: < 80%
melting point: 121 to 125 °C
pest or weed control at 100 ppm [7]: < 25%
inhibition at 25 ppm ([8]; 25 ppm in the growth medium): > 80%
pest or weed control at 100 ppm [9, 13]: < 25%
inhibition at 25 ppm [10]: < 80%
inhibition at 25 ppm [11]: > 80%

COc1ccc(C(C)NC(=O)c2nc(Br)ccc2O)cc1 (centres unmarked) [Compound 486]
pest or weed control at 100 ppm [1, 12]: < 25%
inhibition at 25 ppm [2]: < 80%
pest or weed control at 100 ppm [3, 13]: < 25%
inhibition at 25 ppm ([4]; 25 ppm in the growth medium): < 80%
pest or weed control at 100 ppm [5, 13]: < 25%
inhibition at 25 ppm [6]: > 80%
melting point: 111 to 113 °C
pest or weed control at 100 ppm [7]: < 25%
inhibition at 25 ppm ([8]; 25 ppm in the growth medium): < 80%
pest or weed control at 100 ppm [9, 13]: < 25%
inhibition at 25 ppm [10]: < 80%
inhibition at 25 ppm [11]: < 80%

COc1ccnc(C(=O)Nc2ccc(Oc3cccc(C(F)(F)F)c3)nc2)c1O [Compound 471]
pest or weed control at 100 ppm [1, 12]: 25 to 74%
inhibition at 25 ppm [2]: < 80%
pest or weed control at 100 ppm [3, 13]: 25 to 74%
inhibition at 25 ppm ([4]; 25 ppm in the growth medium): > 80%
pest or weed control at 100 ppm [5, 13]: 25 to 74%
inhibition at 25 ppm [6]: < 80%
melting point: 193 to 195 °C
pest or weed control at 100 ppm [7]: < 25%
inhibition at 25 ppm ([8]; 25 ppm in the growth medium): < 80%
pest or weed control at 100 ppm [9, 13]: < 25%
inhibition at 25 ppm [10]: < 80%
inhibition at 25 ppm [11]: < 80%

CCOc1ccnc(C(=O)Nc2ccc(Oc3cccc(C(F)(F)F)c3)cc2)c1O [Compound 476]
pest or weed control at 100 ppm [1, 12]: < 25%
inhibition at 25 ppm [2]: < 80%
pest or weed control at 100 ppm [3, 13]: 25 to 74%
inhibition at 25 ppm ([4]; 25 ppm in the growth medium): < 80%
pest or weed control at 100 ppm [5, 13]: < 25%
inhibition at 25 ppm [6]: < 80%
melting point: 118 to 121 °C
pest or weed control at 100 ppm [7]: < 25%
inhibition at 25 ppm ([8]; 25 ppm in the growth medium): < 80%
pest or weed control at 100 ppm [9, 13]: < 25%
inhibition at 25 ppm [10]: < 80%
inhibition at 25 ppm [11]: < 80%

COc1ccnc(C(=O)Nc2ccc(Oc3cc(C(F)(F)F)ccn3)cc2)c1O [Compound 461]
pest or weed control at 100 ppm [1, 12]: 25 to 74%
inhibition at 25 ppm [2]: < 80%
pest or weed control at 100 ppm [3, 13]: 25 to 74%
inhibition at 25 ppm ([4]; 25 ppm in the growth medium): < 80%
pest or weed control at 100 ppm [5, 13]: 25 to 74%
inhibition at 25 ppm [6]: < 80%
melting point: 169 to 171 °C
pest or weed control at 100 ppm [7]: < 25%
inhibition at 25 ppm ([8]; 25 ppm in the growth medium): < 80%
pest or weed control at 100 ppm [9, 13]: < 25%
inhibition at 25 ppm [10]: < 80%
inhibition at 25 ppm [11]: < 80%

COc1ccnc(C(=O)N[C@H]2COC(=O)[C@H](Cc3ccccc3)[C@@H](OC(=O)C(C)C)[C@H](C)OC2=O)c1OC(=O)C1CCC1 [Compound 604]
SEPTTR in vivo 1 Day Protectant [1, 16]: + +
inhibition at 25 ppm [2]: < 80%
LEPTNO in vivo 1 Day Protectant [3, 16]: + +
inhibition at 25 ppm ([4]; 25 ppm in growth medium): < 80%
PUCCRT in vivo 1 Day Protectant [5, 16]: + +
inhibition at 25 ppm [6]: < 80%
melting point: 176 to 177 °C
pest or weed control at 100 ppm [7]: < 25%
inhibition at 25 ppm ([8]; 25 ppm in growth medium): < 80%
ERYSGT in vivo 1 Day Protectant [9, 16]: + +
inhibition at 25 ppm [10]: < 80%
inhibition at 25 ppm [11]: < 80%

COc1cccc(CNC(=O)c2cccnc2O)c1OC [Compound 516]
pest or weed control at 100 ppm [1, 12]: < 25%
inhibition at 25 ppm [2]: < 80%
pest or weed control at 100 ppm [3, 13]: < 25%
inhibition at 25 ppm ([4]; 25 ppm in the growth medium): < 80%
pest or weed control at 100 ppm [5, 13]: < 25%
inhibition at 25 ppm [6]: < 80%
melting point: 193 to 194 °C
pest or weed control at 100 ppm [7]: < 25%
inhibition at 25 ppm ([8]; 25 ppm in the growth medium): < 80%
pest or weed control at 100 ppm [9, 13]: < 25%
inhibition at 25 ppm [10]: < 80%
inhibition at 25 ppm [11]: < 80%

COc1ccnc(C(=O)NC(C)c2ccc(Cl)cc2)c1O (centres unmarked) [Compound 246]
pest or weed control at 100 ppm [1, 14]: 25 to 74%
inhibition at 25 ppm [2]: < 80%
LEPTNO in vivo 1 Day Protectant [3, 15]: + +
inhibition at 25 ppm ([4]; 25 ppm in growth medium): < 80%
pest or weed control at 100 ppm [5, 15]: < 25%
inhibition at 25 ppm [6]: < 80%
melting point: 140 to 142 °C
pest or weed control at 100 ppm [7]: < 25%
inhibition at 25 ppm ([8]; 25 ppm in growth medium): < 80%
pest or weed control at 100 ppm [9, 15]: 25 to 74%
inhibition at 25 ppm [10]: < 80%
inhibition at 25 ppm [11]: < 80%

Cc1nc(O)c(C(=O)N[C@H]2COC(=O)[C@H](Cc3ccccc3)[C@@H](OC(=O)C(C)C)[C@H](C)OC2=O)cc1Cl [Compound 531]
pest or weed control at 100 ppm [1, 12]: 25 to 74%
inhibition at 25 ppm [2]: < 80%
pest or weed control at 100 ppm [3, 13]: 25 to 74%
inhibition at 25 ppm ([4]; 25 ppm in the growth medium): < 80%
pest or weed control at 100 ppm [5, 13]: < 25%
inhibition at 25 ppm [6]: < 80%
melting point: 103 to 108 °C
pest or weed control at 100 ppm [7]: < 25%
inhibition at 25 ppm ([8]; 25 ppm in the growth medium): < 80%
pest or weed control at 100 ppm [9, 13]: 25 to 74%
inhibition at 25 ppm [10]: < 80%
inhibition at 25 ppm [11]: < 80%

COc1ccnc(C(=O)Nc2ccc(Oc3cc(C(F)(F)F)cc(C(F)(F)F)n3)cc2)c1O [Compound 464]
pest or weed control at 100 ppm [1, 12]: 25 to 74%
inhibition at 25 ppm [2]: < 80%
pest or weed control at 100 ppm [3, 13]: 25 to 74%
inhibition at 25 ppm ([4]; 25 ppm in the growth medium): < 80%
pest or weed control at 100 ppm [5, 13]: < 25%
inhibition at 25 ppm [6]: < 80%
melting point: 179 to 181 °C
pest or weed control at 100 ppm [7]: < 25%
inhibition at 25 ppm ([8]; 25 ppm in the growth medium): < 80%
pest or weed control at 100 ppm [9, 13]: < 25%
inhibition at 25 ppm [10]: < 80%
inhibition at 25 ppm [11]: < 80%

COc1ccnc(C(=O)Nc2ccc(Oc3ccc(C(F)(F)F)cc3)cc2)c1OS(C)(=O)=O [Compound 723]
inhibition at 25 ppm [2]: < 80%
pest or weed control at 100 ppm [3, 16]: 25 to 74%
inhibition at 25 ppm ([4]; 25 ppm in growth medium): < 80%
pest or weed control at 100 ppm [5, 16]: 25 to 74%
inhibition at 25 ppm [6]: < 80%
melting point: 177 to 180 °C
pest or weed control at 100 ppm [7]: 25 to 74%
inhibition at 25 ppm ([8]; 25 ppm in growth medium): < 80%
pest or weed control at 100 ppm [9, 16]: < 25%
inhibition at 25 ppm [10]: < 80%
inhibition at 25 ppm [11]: < 80%
